Reference: ChEMBL document CHEMBL1201862, “PubChem BioAssay data set” (2004)
The source made the active and inactive calls.

What was measured:
[1] = biological target: T1, Polyadenylate-binding protein 1 (Homo sapiens, UniProt P11940); experiment: PABP1 MLLE–PAM2 interaction inhibitors, dose response, miRNA deadenylation inhibitor project, biochemical, fluorescence polarization, Cy5-PAM2 peptide, secondary (AID 602260); type: functional; details: read-out: IC50_Mean
[2] = biological target: T1, Polyadenylate-binding protein 1; experiment: PABP1 MLLE–PAM2 binding inhibitor potency, dose response, biochemical, fluorescence polarization, FITC-PAM2 peptide (AID 602259); type: functional; details: read-out: IC50_Mean
Cytochrome P450 2D6 = Cytochrome P450 2D6 (Homo sapiens, UniProt P10635);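 also: CYP2D6 member of a cytochrome P450 panel assay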
Sequence of Cytochrome P450 2D6 (P10635 whole entry): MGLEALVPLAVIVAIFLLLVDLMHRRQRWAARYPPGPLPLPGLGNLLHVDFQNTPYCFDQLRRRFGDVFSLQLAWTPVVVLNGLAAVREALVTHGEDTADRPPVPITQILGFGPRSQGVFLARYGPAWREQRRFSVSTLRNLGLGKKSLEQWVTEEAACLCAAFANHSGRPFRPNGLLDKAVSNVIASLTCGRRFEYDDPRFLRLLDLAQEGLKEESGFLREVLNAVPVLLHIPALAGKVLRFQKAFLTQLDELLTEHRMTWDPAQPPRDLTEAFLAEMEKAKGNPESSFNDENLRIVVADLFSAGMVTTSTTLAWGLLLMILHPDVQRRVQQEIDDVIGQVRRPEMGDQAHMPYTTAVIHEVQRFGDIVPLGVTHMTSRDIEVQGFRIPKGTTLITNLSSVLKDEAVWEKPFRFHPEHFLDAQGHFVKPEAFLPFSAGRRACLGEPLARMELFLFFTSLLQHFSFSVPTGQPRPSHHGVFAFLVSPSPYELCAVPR

Cytochrome P450 3A4 = Cytochrome P450 3A4 (Homo sapiens, UniProt P08684);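 also: CYP3A4 tested as one member of a cytochrome P450 panel screen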
Sequence of Cytochrome P450 3A4 (P08684 whole entry): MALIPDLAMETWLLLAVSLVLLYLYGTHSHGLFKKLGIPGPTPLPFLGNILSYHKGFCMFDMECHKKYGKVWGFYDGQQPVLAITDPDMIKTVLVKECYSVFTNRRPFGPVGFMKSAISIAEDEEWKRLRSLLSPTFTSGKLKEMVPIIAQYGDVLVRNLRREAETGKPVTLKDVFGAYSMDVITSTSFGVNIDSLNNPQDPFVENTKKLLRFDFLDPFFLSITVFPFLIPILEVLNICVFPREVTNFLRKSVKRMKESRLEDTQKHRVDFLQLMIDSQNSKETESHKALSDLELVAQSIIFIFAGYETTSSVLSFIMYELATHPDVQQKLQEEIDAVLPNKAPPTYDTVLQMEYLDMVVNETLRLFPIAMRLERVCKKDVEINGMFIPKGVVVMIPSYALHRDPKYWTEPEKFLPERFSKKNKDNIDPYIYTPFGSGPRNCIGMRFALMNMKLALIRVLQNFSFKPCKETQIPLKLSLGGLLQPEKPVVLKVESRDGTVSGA

Cytochrome P450 2C9 = Cytochrome P450 2C9 (Homo sapiens, UniProt P11712)
Sequence of Cytochrome P450 2C9 (P11712 whole entry): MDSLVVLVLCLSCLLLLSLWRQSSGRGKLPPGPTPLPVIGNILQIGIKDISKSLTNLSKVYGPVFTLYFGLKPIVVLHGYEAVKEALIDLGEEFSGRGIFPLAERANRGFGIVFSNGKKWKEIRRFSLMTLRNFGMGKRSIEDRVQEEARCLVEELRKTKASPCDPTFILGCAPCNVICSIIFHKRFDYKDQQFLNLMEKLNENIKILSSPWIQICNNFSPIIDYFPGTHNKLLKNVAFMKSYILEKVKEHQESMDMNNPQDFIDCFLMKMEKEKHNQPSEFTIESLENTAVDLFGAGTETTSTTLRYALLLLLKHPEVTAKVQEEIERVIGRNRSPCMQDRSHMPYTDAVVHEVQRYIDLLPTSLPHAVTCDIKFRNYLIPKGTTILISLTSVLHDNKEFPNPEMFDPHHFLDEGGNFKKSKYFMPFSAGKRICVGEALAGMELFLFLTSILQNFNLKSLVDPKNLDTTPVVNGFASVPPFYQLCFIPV

[3] = biological target: T2, Replicative DNA helicase DnaB (Mycobacterium tuberculosis, UniProt P9WMR3); experiment: DnaB intein splicing inhibitors, dose response, biochemical, cell-free fluorescence (AID 449749); type: functional
T2 sequence (P9WMR3 whole entry): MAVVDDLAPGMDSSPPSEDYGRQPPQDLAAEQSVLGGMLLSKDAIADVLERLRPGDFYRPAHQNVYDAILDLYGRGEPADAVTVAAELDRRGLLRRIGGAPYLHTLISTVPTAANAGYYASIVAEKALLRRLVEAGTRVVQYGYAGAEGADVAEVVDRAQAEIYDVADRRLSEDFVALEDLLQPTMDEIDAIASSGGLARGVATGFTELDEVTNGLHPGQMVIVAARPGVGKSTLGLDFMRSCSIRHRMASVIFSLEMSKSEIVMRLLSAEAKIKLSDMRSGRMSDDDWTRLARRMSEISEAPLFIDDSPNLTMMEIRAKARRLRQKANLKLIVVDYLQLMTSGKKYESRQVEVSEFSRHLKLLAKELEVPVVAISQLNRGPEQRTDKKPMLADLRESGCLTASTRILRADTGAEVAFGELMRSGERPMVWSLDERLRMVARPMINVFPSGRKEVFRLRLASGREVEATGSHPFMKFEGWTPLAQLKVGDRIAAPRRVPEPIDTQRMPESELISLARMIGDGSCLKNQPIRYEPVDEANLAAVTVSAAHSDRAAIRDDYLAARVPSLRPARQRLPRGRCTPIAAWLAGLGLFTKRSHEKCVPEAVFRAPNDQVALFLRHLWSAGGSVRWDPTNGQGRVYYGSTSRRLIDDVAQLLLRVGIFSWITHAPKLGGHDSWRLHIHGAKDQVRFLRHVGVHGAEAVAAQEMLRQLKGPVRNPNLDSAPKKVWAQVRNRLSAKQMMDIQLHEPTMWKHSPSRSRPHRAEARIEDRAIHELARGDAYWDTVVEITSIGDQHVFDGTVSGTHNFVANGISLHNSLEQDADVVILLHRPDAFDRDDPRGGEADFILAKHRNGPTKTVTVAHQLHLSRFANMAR

Protein RecA = biological target: T3, Protein RecA (Mycobacterium tuberculosis, UniProt P9WHJ3); experiment: Fluorescence Cell-Free Homogeneous Dose Retest to Identify Inhibitors of RecA-Intein Splicing Activity. [Related pubchem assays (depositor defined):AID2097, AID2223, AID489010, AID492950]; type: functional
T3 sequence (P9WHJ3 whole entry): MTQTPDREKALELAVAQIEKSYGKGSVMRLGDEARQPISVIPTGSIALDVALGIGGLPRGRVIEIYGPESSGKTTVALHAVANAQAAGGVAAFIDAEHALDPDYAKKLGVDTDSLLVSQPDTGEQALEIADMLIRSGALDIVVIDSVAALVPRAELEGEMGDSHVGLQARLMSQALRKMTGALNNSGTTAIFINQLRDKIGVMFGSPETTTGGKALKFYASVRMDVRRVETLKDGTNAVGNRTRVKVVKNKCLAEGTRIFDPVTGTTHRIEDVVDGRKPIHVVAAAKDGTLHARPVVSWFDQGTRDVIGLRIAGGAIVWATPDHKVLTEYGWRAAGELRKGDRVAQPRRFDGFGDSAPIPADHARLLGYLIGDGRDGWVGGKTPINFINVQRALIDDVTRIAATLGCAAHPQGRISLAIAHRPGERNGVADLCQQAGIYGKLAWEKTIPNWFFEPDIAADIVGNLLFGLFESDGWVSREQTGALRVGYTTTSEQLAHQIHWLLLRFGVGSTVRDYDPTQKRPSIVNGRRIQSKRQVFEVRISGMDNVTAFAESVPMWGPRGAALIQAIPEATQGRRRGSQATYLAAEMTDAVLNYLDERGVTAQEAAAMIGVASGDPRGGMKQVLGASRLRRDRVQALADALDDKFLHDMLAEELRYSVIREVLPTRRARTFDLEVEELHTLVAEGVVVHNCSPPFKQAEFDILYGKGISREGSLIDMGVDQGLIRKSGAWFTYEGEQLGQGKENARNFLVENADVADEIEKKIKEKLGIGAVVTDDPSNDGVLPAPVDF

Cytochrome P450 2C19 = Cytochrome P450 2C19 (Homo sapiens, UniProt P33261); experiment: Cytochrome panel assay with activity outcomes. Panel member name: p450-cyp2c19 Compounds with AC50 equal or less than 10 uM are considered active; type: functional; details: read-out: AC50
Sequence of Cytochrome P450 2C19 (P33261 whole entry): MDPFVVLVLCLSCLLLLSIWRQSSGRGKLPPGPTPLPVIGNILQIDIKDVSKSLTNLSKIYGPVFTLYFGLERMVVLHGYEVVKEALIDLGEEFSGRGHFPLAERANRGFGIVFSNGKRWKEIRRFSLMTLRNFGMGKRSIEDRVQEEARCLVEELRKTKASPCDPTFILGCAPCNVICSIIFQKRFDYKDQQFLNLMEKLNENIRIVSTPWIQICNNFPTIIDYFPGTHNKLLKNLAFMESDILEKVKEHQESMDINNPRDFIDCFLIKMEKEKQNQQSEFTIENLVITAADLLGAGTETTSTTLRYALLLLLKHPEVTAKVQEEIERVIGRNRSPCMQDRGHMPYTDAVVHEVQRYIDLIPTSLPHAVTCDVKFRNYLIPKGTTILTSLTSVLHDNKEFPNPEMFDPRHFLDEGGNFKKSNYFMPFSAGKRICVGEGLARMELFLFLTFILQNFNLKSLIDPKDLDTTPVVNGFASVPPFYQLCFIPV

[4] = inhibitors of intracellular T. cruzi replication, confirmation, NIH3T3 host cells, beta-gal luminescence (AID 2044); type: functional, cell-based;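 also: intracellular parasites grown in NIH/3T3 mouse fibroblasts as host cells; luminescent beta-galactosidase reporter signal from transgenic T. cruzi replicating inside host cells; inhibitors lower the luminescence signal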
[5] = cytotoxicity toward NIH3T3 fibroblasts, dose response, counter-screen, cell-based, ATP luminescence, mouse fibroblasts (AID 2010); type: functional;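 also: cells exposed to compound for about 90 hours before reading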
INS1 = experiment: beta cell apoptosis inhibitors, cytokine rescue, dose response, luminescence, retest (AID 449756); type: functional, cell-based; details: Rattus norvegicus;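 also: cell death triggered by IL-1 beta plus TNF-alpha plus IFN-gamma mixture; protective hits raise ATP signal compared with cytokine alone wells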
[6] = NIH-3T3 fibroblast cytotoxicity, dose response, cytotoxicity control, cell-based, fluorescence, Alamar Blue, secondary assay (AID 2327); type: functional;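 also: NIH-3T3 mouse fibroblasts cultured with fluconazole at 8 µg/mL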
H9c2 = experiment: cells; type: functional, cell-based; details: Rattus norvegicus, H9c2, Myocardium;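 also: confirmatory concentration-response retest of ultra-high-throughput screening hits for modulation of myocardial damage; cell death induced by hydrogen peroxide oxidative stress; compound pretreatment for 60 min then peroxide exposure for 2 h; potency is for protecting the cells against peroxide damage rather than for killing them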

T1 sequence (P11940 whole entry): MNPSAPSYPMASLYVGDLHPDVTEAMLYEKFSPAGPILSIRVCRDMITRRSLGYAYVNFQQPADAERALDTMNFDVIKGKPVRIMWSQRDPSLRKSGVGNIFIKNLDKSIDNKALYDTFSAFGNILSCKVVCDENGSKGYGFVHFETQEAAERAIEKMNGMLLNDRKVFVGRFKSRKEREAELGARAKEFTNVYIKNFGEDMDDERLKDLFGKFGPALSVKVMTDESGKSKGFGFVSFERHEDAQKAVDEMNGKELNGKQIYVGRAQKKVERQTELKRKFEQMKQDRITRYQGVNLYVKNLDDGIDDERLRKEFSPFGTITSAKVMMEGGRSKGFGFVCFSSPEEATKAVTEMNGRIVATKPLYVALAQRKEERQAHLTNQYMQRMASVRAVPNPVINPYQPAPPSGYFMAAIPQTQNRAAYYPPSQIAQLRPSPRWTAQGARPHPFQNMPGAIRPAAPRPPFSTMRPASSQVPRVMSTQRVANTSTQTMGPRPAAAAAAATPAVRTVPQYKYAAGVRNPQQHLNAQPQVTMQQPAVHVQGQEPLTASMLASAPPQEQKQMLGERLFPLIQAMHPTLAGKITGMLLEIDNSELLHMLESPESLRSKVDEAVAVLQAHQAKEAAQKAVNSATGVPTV

Cn1ccnc1P(=S)(c1nccn1C)N1CCOCC1
IC50 [1]: > 66 µM (inactive) | IC50 [2]: > 66 µM (inactive)

Cn1c(SCc2nc3ccccc3n2CCO)nc2ccccc21
AC50 (Cytochrome P450 2D6): 20 µM (inconclusive)

COC(=O)[C@@]1(Cc2ccccc2)[C@H]2c3cc(C(=O)N(C)C)n(Cc4ccccc4)c3C[C@H]2CN1C(=O)c1ccccc1
AC50 (Cytochrome P450 2D6): 39.8 µM (inconclusive)

CSc1nc2ccccc2cc1/C=C(\C#N)c1cccc(C)c1
AC50 (Cytochrome P450 2D6): 6.31 µM (inconclusive) | AC50 (Cytochrome P450 3A4): 25.1 µM (inconclusive) | AC50 (Cytochrome P450 2C9): 31.6 µM (inconclusive)

COC(=O)COc1ccc(C(c2c(C)n[nH]c2O)c2c(C)n[nH]c2O)cc1
AC50 [3]: 0.347 µM (active) | EC50 (Protein RecA): 0.377 µM (active)

CC(C)c1cccc2c([Si](C)(C)C)c3c(nc12)-c1cccc(=O)n1C3
AC50 (Cytochrome P450 2D6): 20 µM (inconclusive)

Cc1cc[n+](-c2[n-]c(=O)sc2C=NNC(=O)c2ccccc2)cc1
IC50 [1]: > 66 µM (inactive) | IC50 [2]: > 66 µM (inactive)

COc1cccc(-c2nc(NCc3cnc(C)cn3)c3ccccc3n2)c1
AC50 (Cytochrome P450 2C19): 25.1 µM (inconclusive) | AC50 (Cytochrome P450 2D6): 39.8 µM (inconclusive)

Cc1cc2cc(CN3C(=O)c4ccccc4C3=O)ccc2n1C
EC50 [4]: < 0.1 µM (active) | EC50 [5]: > 60 µM (not active) | AC50 (INS1): 13.3 µM (active) | IC50 [1]: > 66 µM (inactive) | IC50 [2]: 55.2 µM (inactive)

O=C(Oc1ccccc1)N1CCC2(CC1)CCN(c1ccncc1)CC2
AC50 (Cytochrome P450 2D6): 39.8 µM (inconclusive) | AC50 (Cytochrome P450 2C9): 20 µM (inconclusive)

COCc1nnc(NC(=O)c2ccc(S(=O)(=O)N3CCCCCC3)cc2)o1
EC50 [6]: > 160 µM (inactive)

CN(C)c1ncc2nc(-c3ccc(Cl)cc3)c(=O)n(C[C@H]3CCCO3)c2n1
AC50 (Cytochrome P450 2D6): 1.58 µM (inconclusive)

CCN1CCN(c2nc3ccccc3nc2C(C#N)C(=O)OC2CCCCC2)CC1 (centres undefined)
AC50 (Cytochrome P450 2C19): 39.8 µM (inconclusive) | AC50 (Cytochrome P450 2D6): 28.2 µM (inconclusive) | AC50 (Cytochrome P450 2C9): 39.8 µM (inconclusive)

CCOC(=O)CNc1nnc(SCC(=O)OCC)[nH]c1=O
AC50 [3]: 8.14 µM (active) | EC50 (Protein RecA): 0.845 µM (active) | IC50 [1]: > 66 µM (inactive) | IC50 [2]: > 66 µM (inactive)

Cc1n[nH]c2c1C1(CCC3(CC1)OCCO3)C(C#N)=C(N)O2
AC50 [3]: > 380 µM (inactive) | EC50 (Protein RecA): > 380 µM (inactive)

Cc1noc(C)c1-c1nc(N(C)C)c2ccccc2n1
AC50 (Cytochrome P450 2C19): 25.1 µM (inconclusive) | AC50 (Cytochrome P450 2D6): 20 µM (inconclusive) | AC50 (Cytochrome P450 3A4): 15.8 µM (inconclusive)

CSc1ccc(C(c2c(C)n[nH]c2O)c2c(C)n[nH]c2O)cc1
AC50 [3]: 0.432 µM (active) | EC50 (Protein RecA): 0.241 µM (active)

CCOc1cccc(=O)c2c(C)oc(C)c12
IC50 [1]: 37.3 µM (inactive) | IC50 [2]: 41.6 µM (inactive)

Cc1ccc2c(c1)N(C(=O)CSc1nncn1C)C(C)(C)c1ssc(=S)c1-2
AC50 [3]: 8.82 µM (active) | EC50 (Protein RecA): 10.1 µM (active)

CCC(C)(C)n1nnnc1CN(Cc1ccco1)Cc1cc2cc3c(cc2nc1O)OCO3
IC50 [1]: > 66 µM (inactive) | IC50 [2]: > 66 µM (inactive)

CCOC(=O)c1cnc2ccc(C(=O)OC)cc2c1NCCc1ccc(OC)c(OC)c1
IC50 (H9c2): > 79 µM (inactive)

CCC(Sc1nc2cc3c(cc2c(=O)n1Cc1ccco1)OCO3)C(=O)Nc1ccccc1OC (centres undefined)
AC50 (Cytochrome P450 2D6): 5.01 µM (inconclusive)

CSc1ccccc1N=C(S)Nc1ccc(S(N)(=O)=O)cc1
IC50 [1]: > 66 µM (inactive) | IC50 [2]: > 66 µM (inactive)

COC(=O)c1[nH]c2c(c1C)C(=O)CC(c1cc(OC)ccc1OC)C2 (centres undefined)
IC50 (H9c2): > 79 µM (inactive)

COCCNc1ncnc2ccc(-c3ccccc3C(F)(F)F)cc12
AC50 (Cytochrome P450 2D6): 39.8 µM (inconclusive)

Cc1ccccc1NC(=O)COC(=O)CCc1nc(O)c2ccccc2n1
IC50 (H9c2): 10.1 µM (active)

O=[N+]([O-])c1cc(/C=N/c2cccc3c(O)cccc23)ccc1Cl
AC50 [3]: 46.8 µM (active) | EC50 (Protein RecA): 8.76 µM (active)

COc1ccc(C(=O)c2ccccc2)c(O)c1 [OXYBENZONE]
AC50 (Cytochrome P450 2C19): 0.398 µM (inconclusive) | AC50 (Cytochrome P450 2D6): 12.6 µM (inconclusive)
